The values that follow come from US20260000658A1, “METHODS FOR THE TREATMENT OF PROLIFERATIVE GLOMERULONEPHRITIS” (INSTITUT NATIONAL DE LA SANTÉ ET DE LA RECHERCHE MÉDICALE, priority 2022, published 2026).

Structures are written as SMILES.

Assay [1] deals with uninephrectomized Tg26^HE mice. In words: Uninephrectomized Tg26^HE mice (accelerated collapsing glomerulopathy model), vehicle or alpelisib for 4 weeks. It is filed as in vivo, mouse. The procedure: Scale bar P-S6RP, and P-AKTSer473 mean intensity quantification (n=5-6 mice per group). P. Serum creatinine level, and Blood urea nitrogen level of Tg26WT and Tg26HE mice at the time of sacrifice (4 weeks following uninephrectomy and treated either with vehicle or alpelisib) (n=8-9 mice per group)
(§1) For the uninephrectomy experiments, the right kidneys were removed under anesthesia. For the medical treatment of mice, 50 mg kg −1 alpelisib (MedChem Tronica) in 1% carboxymethylcellulose (Sigma Aldrich)+0.5% Tween (Sigma Aldrich) or vehicle (1% carboxymethylcellulose+0.5% Tween) was administered by oral gavage daily for the indicated periods of time. Blood and urines were obtained at the indicated times. At euthanasia, blood, urines, kidneys were harvested. In some experiments, spleens, hearts, and bone marrow (BM) in femurs and tibias were harvested as well. Tissues were fixed in 4% paraformaldehyde and paraffin embedded for immunohistochemical analysis, snap-frozen in Optimal Cutting Temperature (OCT), or stored at −80° C. for mRNA or protein analysis.
(§2) Mouse blood counts were analyzed using a hematology analyzer (ProCyte Dx; IDEXX Laboratories). Mouse serum creatinine, blood urea nitrogen, urinary albumin, and urinary creatinine were evaluated using an AU5800 (Beckman Coulter) autoanalyzer. Serum anti-dsDNA measurement was performed according to the manufacturer's instruction using mouse anti-dsDNA ELISA kit (LBIS). The absorbance was measured using Ininite M Nano (TECAN).
4-μm kidney sections were stained with periodic acid-Schiff (PAS), Masson's Trichrome (MT), Periodic acid metenamine silver (PAM) or Hematoxylin and Eosin (HE) staining for histological analysis. The degree of glomerular lesions was evaluated using the following scoring system: 0=no lesion, 1=affecting up to 25% of the glomerulus, 2=affecting 25-50% of the glomerulus, 3=affecting 50-75% of the glomerulus, and 4=affecting 75-100%. At least 50 glomeruli per sample were measured for each analysis. An indirect immunoperoxidase method was used for immunohistochemistry. Briefly, after deparaffinization, antigen retrieval was performed with citrate buffer (pH6) or Tris-EDTA buffer (pH9 or pH6) using microwave or high temperature (95° C.). Endogenous peroxidase activity was quenched using 3% hydrogen peroxide; nonspecific protein binding was blocked using 2.5% normal horse serum (Vector Laboratories), and endogenous biotin activity was quenched using the Avidin/Biotin Blocking Kit (Vector Laboratories). When using mouse primary antibodies on mouse tissue, Klear mouse blocking reagent (Diagomics) was used to block endogenous mouse immunoglobulins. After blocking, the tissue sections were incubated with the primary antibodies overnight at 4° C. The following primary antibodies were used: rabbit anti-Ki67 antibody (SP6; Thermo Fisher Scientific), rabbit anti-P-S6RP antibody (D68F8; Cell Signaling Technology), mouse anti-P-AKT (Ser473) antibody (587F11; Cell Signaling Technology), rabbit anti-P-AKT (Thr308) antibody (C31E5E; Cell Signaling Technology), mouse anti-S6RP antibody (54E2; Cell Signaling Technology), chicken anti-GFP antibody (Abcam), guinea pig anti-Nephrin antibody (GP-N2; Progen), rabbit anti-Podocin antibody (P0372; Sigma Aldrich), mouse anti-WTI antibody (6F-H2; DAKO). The corresponding secondary antibodies including anti-mouse IgG, anti-rabbit IgG, anti-guinea pig IgG, biotinylated anti-rabbit IgG (Vector Laboratories), and biotinylated anti-mouse IgG (Vector Laboratories) were applied. For Avidin/Biotin detection, an R.T.U. Vectastain Kit (Vector Laboratories) or streptavidin (Thermo Fisher Scientific) was used. The immunoreactive antigens sites were detected with hydrogen peroxide and diaminobenzidine. For frozen immunofluorescent staining, frozen tissue sections (4 μm) were briefly air dried and fixed in 50% methanol/50% acetone. […]

For a further assay, the system named is NZBWF1/J mice. In words: Uninephrectomized NZBWF1/J mice (lupus nephritis model), vehicle or alpelisib for 4 weeks. It is filed as in vivo, mouse.
Text: A. Urinary albumin to creatinine ratio B. Blood urea nitrogen level, C. kidney to body weight ratio of NZBWF1/J mice at the time of sacrifice (4 weeks following either sham operation or uninephrectomy followed by the treatment either with vehicle or alpelisib) (n=5-15 mice per group). D. Representative P-S6RP/Nephrin coimmunofluorescence staining of kidneys from 4 weeks following either sham operation or uninephrectomy followed by the treatment either with vehicle or alpelisib) (n=4-6 mice per group). Scale bar […]. E. P-S6RP mean intensity quantification (n=4-6 mice per group). F. Col3a, G. Col1a, and H. Tnfα quantification of qRT-PCR analysis in the kidney cortex of kidneys at the time of sacrifice (4 weeks following either sham operation or uninephrectomy followed by the treatment either with vehicle or alpelisib) (n=5-15 mice per group). I. Kaplan-Meier survival curves of MRL-lpr mice treated either with vehicle or alpelisib (n=13-14 mice per group). J. Urinary albumin to creatinine ratio of MRL-lpr mice treated either with vehicle or alpelisib from 8 weeks old till death (n=13-14 mice per group). K. Vehicle treated mice, and L. alpelisib treated mice of the trajectory of urinary albumin to creatinine ratio of MRL-lpr mice (n=13-14 mice per group).
as §1, §2
4-μm kidney sections were stained with periodic acid-Schiff (PAS), Masson's Trichrome (MT), Periodic acid metenamine silver (PAM) or Hematoxylin and Eosin (HE) staining for histological analysis. The degree of glomerular lesions was evaluated using the following scoring system: 0=no lesion, 1=affecting up to 25% of the glomerulus, 2=affecting 25-50% of the glomerulus, 3=affecting 50-75% of the glomerulus, and 4=affecting 75-100%. At least 50 glomeruli per sample were measured for each analysis. An indirect immunoperoxidase method was used for immunohistochemistry. Briefly, after deparaffinization, antigen retrieval was performed with citrate buffer (pH6) or Tris-EDTA buffer (pH9 or pH6) using microwave or high temperature (95° C.). Endogenous peroxidase activity was quenched using 3% hydrogen peroxide; nonspecific protein binding was blocked using 2.5% normal horse serum (Vector Laboratories), and endogenous biotin activity was quenched using the Avidin/Biotin Blocking Kit (Vector Laboratories). When using mouse primary antibodies on mouse tissue, Klear mouse blocking reagent (Diagomics) was used to block endogenous mouse immunoglobulins. After blocking, the tissue sections were incubated with the primary antibodies overnight at 4° C. […]

Setting [2] is: 4 weeks treatment, at sacrifice.

For the compound `Cc1nc(NC(=O)N2CCC[C@H]2C(N)=O)sc1-c1ccnc(C(C)(C)C(F)(F)F)c1` [alpelisib, Alpelisib], in assay [1] (4 weeks treatment), the “AKT/mTOR pathway in glomeruli” value was “profoundly blunted”; the “expression of Col1a, Col3a and Lcn2” value is on record as “reduced expression”; the “expression of podocyte markers” value is on record as “maintained expression of podocyte markers”; the “glomerular lesions, kidney histology” value is recorded as “fewer glomerular lesions”. The ratio kidney/body weight result in assay [1] (4 weeks treatment) is recorded as “improved”. For the same compound, in assay [1] (4 weeks treatment, vs vehicle), the albuminuria result was “significantly improved” and the “kidney function (serum creatinine, blood urea nitrogen)” value was “significantly improved”. For the same compound, the “kidney lesions (title of FIG. 3)” value in assay [1] (accelerated mouse model of collapsing glomerulopathy) is “improves kidney lesions”. Also, in assay [1] (uninephrectomy at 4 weeks old, 4 weeks treatment), the “surfaces of the kidneys at sacrifice” value was “regular and smooth”. In the assay on NZBWF1/J mice (4 weeks treatment), the anemia result is on record as “partial correction of anemia”; the “glomerular AKT/mTOR pathway activation (P-S6RP)” value is “blunted”; the “glomerular IgG, IgM and C3 deposits” value is recorded as “significantly reduced”; the “level of dsDNA” value was “tendency to decrease”. In the assay on NZBWF1/J mice (4 weeks treatment), the platelet count result was “significant increase in platelet count” and the podocyte differentiation markers entry was “significantly improved”. Also, in the assay on NZBWF1/J mice (setting [2]), the “blood urea nitrogen levels” value is recorded as “lower blood urea nitrogen levels” and the “kidney to body weight ratio” value is listed as “significantly reduced”. Moreover, the “glomeruli, histological level” value in the assay on NZBWF1/J mice (4 weeks treatment, vs vehicle) is on record as “preserved glomeruli”. Also, the “kidney lesions (title of FIG. 4)” value with NZBWF1/J mice (Lupus Nephritis models (NZBWF1/J and MRL-lpr)) is “improves kidney lesions”. Besides, the spleen size entry in the assay with NZBWF1/J mice (both sham and uninephrectomized mice) was “significantly reduced”. Moreover, in the assay with NZBWF1/J mice (females, uninephrectomy at 24 weeks, 4 weeks treatment, at sacrifice), the “albuminuria (urinary albumin to creatinine ratio)” value is on record as “significantly less albuminuria”. Also, in the assay on NZBWF1/J mice (kidney cortex, qRT-PCR), the “Col1a and Col3a mRNA expression” value was “reduced”; the “TNFa mRNA expression” value is “reduced”. Moreover, the “progression of glomerular lesions” value with NZBWF1/J mice (sacrifice vs kidney removed at uninephrectomy) is “remained stable”.
